Assay results published in patent US6787545B1, “Pyrrolotriazine derivatives having spla2-inhibitory activities” (Shiongi & Co., Ltd., priority 1999, dated 2004).

Columns and labels:
[1] = molecular target: T1, recombinant human secretory phospholipase A2 (Homo sapiens, UniProt P14555); test: Inhibition test of human secretory phospholipase A2 (chromogenic assay, 96 well microtiterplate); type: biochemical; conditions: sPLA2 50 ng/well, 40° C., 30 minutes, OD 405 nm, substrate 1,2-bis(heptanoylthio)-1,2-dideoxy-sn-glycero-3-phospholylcholine
T1 sequence (P14555 21-144): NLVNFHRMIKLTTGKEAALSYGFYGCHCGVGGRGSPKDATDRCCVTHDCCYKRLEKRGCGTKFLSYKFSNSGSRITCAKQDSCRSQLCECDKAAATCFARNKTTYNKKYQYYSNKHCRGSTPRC
Source text: Inhibition Test of Human Secretory Phospholipase A2 Analytical Experiment
In order to identify and evaluate an inhibitor of recombinant human secretory phospholipase A2, the following chromogenic assay is utilized. The assay herein has been applied for high volume screening wherein 96 well microtiterplate is used. A general explanation for such assay is described in “Analysis of Human Synovial Fluid Phospholipase A2 on Short Chain Phosphatidylcholine-Mixed Micelles: Development of a Spectrophotometric Assay Suitable for a Micortiterplate Reader” (Analytical Biochemistry, 204, pp 190-197, 1992 by Laure. J. Reynolds. Lori L. Hughes and Edward A. Dennis: the disclosure of which is incorporated herein for reference.
1 mg of sPLA2 is dissolved in 1 ml of an enzyme buffer. Thereafter, the solution is maintained at 4° C.
In the assay, 5 μl of the solution is diluted with 1995 μl of the reaction buffer to be used.
198 mg of 5,5′-dithiobis-2-[…] (manufactured by Wako Pure Chemicals) is dissolved in 100 ml of H2O
pH 7.5 (adjusted with NaOH)
100 mg of racemic 1,2-bis(heptanoylthio)-1,2-dideoxy-sn-glycero-3-phospholylcholine is dissolved in 1 ml of chloroform.
624.9 mg of Triton-X 100 is dissolved in the reaction buffer.
Enzyme Reaction: for 1 Plate of Microtiterplate
1) 0.106 ml of the substrate solution is put in a centrifugal tube, and nitrogen gas is jetted to remove the solvent. 0.54 ml of Triton-X 100 is added thereto, the mixture is stirred, thereafter it is sonified in a bath type sonification to dissolve. To the resulting product are added 17.8 ml of the reaction buffer and 0.46 ml of DTNB, and 0.18 ml each of the admixture is poured to wells of the 96 well microtiterplate.
2) 10 μl of a test compound (or solvent blank) are added in accordance with alignment of plates which has been previously set.
3) Incubation is effected at 40° C. for 15 minutes.
4) 20 μl of an enzyme solution (sPLA2) which has been previously diluted (50 ng/well) are added to start reaction (40° C., 30 minutes).
5) Changes in absorbancy for 30 minutes are measured by a plate reader, and inhibition activity was calculated (OD: 405 nm).
6) IC50 was determined by plotting log concentration with respect to inhibition values within 10% to 90% inhibiting range.

| IC50 [1] [nM] | melting point [°C] | SMILES |
| --- | --- | --- |
| 11 | 207 to 209 | CCc1c(C(=O)C(N)=O)c2c(OCC(=O)O)nc(C)nn2c1Cc1ccccc1 [Compound I-4] |
| 11 | 184 to 186 | CCc1c(C(=O)C(N)=O)c2c(OCC(=O)O)nc(C)nn2c1Cc1ccccc1-c1cccs1 [Compound I-6] |
| 607 |  | CCc1c(C(=O)C(N)=O)c2c(OCC(=O)OC)nc(C)nn2c1Cc1ccccc1-c1ccccc1 [Compound I-7] |
| 8 | 174 to 176 | CCc1c(C(=O)C(N)=O)c2c(OCC(=O)O)nc(C)nn2c1Cc1ccccc1-c1ccccc1 [Compound I-8] |

Further lines, the compound ahead of its results:

| SMILES | IC50 [1] [nM] | melting point [°C] |
| --- | --- | --- |
| COC(=O)COc1nc(C)nn2c(Cc3ccccc3)c(C)c(C(=O)C(N)=O)c12 [Compound I-1] | 203 |  |
| Cc1nc(OCC(=O)O)c2c(C(=O)C(N)=O)c(C)c(Cc3ccccc3)n2n1 [Compound I-2] | 13 | 195 to 197 |
| CCc1c(C(=O)C(N)=O)c2c(OCC(=O)OC)nc(C)nn2c1Cc1ccccc1 [Compound I-3] | 317 | 170 to 171 |
